Assay results published in article PMC7361990, “Molecular Basis for Ser/Thr Specificity in PKA Signaling” (Cells, 2020).

Experiments:
PKA = settings: cited from earlier work
Excerpt: The PKA C subunit is a classic example for a Ser/Thr kinase with serine specificity and this preference is highly conserved among different species. PKA can select target substrates according to the consensus sequence RRXS*/T*Y, where X is any residue, and Y is a hydrophobic residue.

PKA Cα wt = biological target: T1, PKA Cα wt (Homo sapiens, UniProt P17612); experiment: Coupled spectrophotometric kinase assay; format: biochemical; settings: for Km / kcat: 20 nM kinase with S-Kemptide, 50 nM with T-Kemptide, SD; for Km / kcat / kcat/KM: mean ± SD of at least three independent measurements; for kcat/KM: catalytic efficiency
T1 construct: made in house
Experimental: (§1) To determine the Michaelis-Menten constant (KM) and the turnover number (kcat) of purified PKA Cα wt and the DFG+1 mutants for the peptide substrate Kemptide, a coupled spectrophotometric assay was used. As we were interested in the substrate specificity of the kinase, we tested two different peptide substrates: S-Kemptide (LRRASLG) as a serine substrate and T-Kemptide (LRRATLG) as a threonine substrate (GeneCust, Boynes, France). 50 nM PKA Cα wt were used when measured with T-Kemptide and 20 nM wt, F187I, or F187T when measured with S-Kemptide. In all other assays, the final kinase concentration was 10 nM of the respective kinase. All kinases were measured with a minimum of three independent replicates. The calculated turnover was plotted against the […] and analyzed with GraphPad Prism 8.0 (GraphPad Software, San Diego, CA, USA).

PKA Cα F187T = biological target: T2, PKA Cα F187T (Homo sapiens, UniProt P17612, F188T); experiment: Coupled spectrophotometric kinase assay; format: biochemical; settings: mean ± SD of at least three independent measurements; for Km / kcat: 20 nM kinase with S-Kemptide, 10 nM with T-Kemptide, SD; for kcat/KM: catalytic efficiency
T2 construct: made in house
Experimental: as §1

PKA Cα F187I = biological target: T3, PKA Cα F187I (Homo sapiens, UniProt P17612, F188I); experiment: Coupled spectrophotometric kinase assay; format: biochemical; settings: mean ± SD of at least three independent measurements; for Km / kcat: 20 nM kinase with S-Kemptide, 10 nM with T-Kemptide, SD; for kcat/KM: catalytic efficiency
T3 construct: made in house
Experimental: as §1

Substance | higher catalytic efficiency than Kemptide (PKA) | Km (PKA Cα wt) [µM] | kcat (PKA Cα wt) [s⁻¹] | kcat/KM (PKA Cα wt) | Km (PKA Cα F187T) [µM] | kcat (PKA Cα F187T) [s⁻¹] | kcat/KM (PKA Cα F187T) | Km (PKA Cα F187I) [µM] | kcat (PKA Cα F187I) [s⁻¹] | kcat/KM (PKA Cα F187I) | higher catalytic efficiency (kcat/KM) for the serine substrate peptide compared to T-Kemptide (PKA Cα wt; S-Kemptide versus T-Kemptide)
GRTGRRNSI [peptide derived from PKI with a serine introduced at the P0 position] | more than 70 fold | – | – | – | – | – | – | – | – | – | –
LRRATLG [T-Kemptide, LRRATLG, threonine peptide substrate] | – | 861 ± 184 | 7.5 ± 0.8 | 0.09 ± 0.02 ×10^5 M^−1s^−1 | 25 ± 3.4 | 37.1 ± 4.5 | 14.9 ± 0.6 ×10^5 M^−1s^−1 | 19.8 ± 3.3 | 43.0 ± 4.7 | 22.1 ± 4.5 ×10^5 M^−1s^−1 | –
LRRASLG [S-Kemptide, heptapeptide (LRRASLG), canonical serine substrate of PKA derived from the porcine liver pyruvate kinase] | – | 19.8 ± 3.9 | 19.8 ± 1.0 | 10.3 ± 1.7 ×10^5 M^−1s^−1 | 23 ± 3.1 | 15.7 ± 0.3 | 6.9 ± 1.2 ×10^5 M^−1s^−1 | 92.2 ± 3.8 | 25.4 ± 5.8 | 2.8 ± 0.8 ×10^5 M^−1s^−1 | more than 100 fold
